Laboratory results taken from the supplement of paper PMC11208160.

Experiment: recombinant barcode read abundance after kanamycin selection (control-corrected) (log10(CPM+1)); higher = more efficient recombination; sequences stand for … in AGTGCAGAGAAAATCGGCCAGTTTTCTCTGCCTGCAGTCCGCATGCCGT…AGATTTATGCAGCGGACTGCCTTTCTCCCAAAGTGATAAACCGGACAGTATCATGGACCGGTTTTCCCGGTAATCCGTATTTGCAAGGTTGGTTTCACT; site = the 11-nt target
In short: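 Recombination efficiency was calculated from barcode counts at recombinant junctions, normalized to counts per million, averaged and corrected by the control. Each value is given as log10(CPM+1). The constructs were Gibson-cloned oligos (promoter, target, barcode, J23119-driven first 104 bridge RNA bases) in a vector with the remaining 73 bp and a T7-inducible recombinase, co-electroporated into E. coli with a donor plasmid and plated in duplicate on chloramphenicol/ampicillin LB agar (control) or chloramphenicol/ampicillin/kanamycin with 0.1 mM IPTG.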
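Further: IS621 recombinase and bridge RNA in Escherichia coli cells.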

| Sequence | recombinant barcode read abundance (log10) |
| --- | --- |
| GCCGCGCCTTGGGTTCTAACCTGTTGCAG (site GCCACGCCTCT) | 0.0533 |
| GCCGCGCCTTGGGTTCTAACCTGTTGCAG (site GCCCCGCCTCT) | 0.271 |
| GCCGCGCCTTGGGTTCTAACCTGTTGCAG (site GCCGCGCCTCT) | 0.116 |
| GCCGCGCCTTGGGTTCTAACCTGTTGCAG (site GCCTCGCCTCT) | 0.13 |
| GCCGCTCCTTGGGTTCTAACCTGTTGCCT (site GCCGCTCCTAG) | 0.163 |
| GCCGCTCCTTGGGTTCTAACCTGTTGCCT (site GCGGTTCCTAG) | 0.098 |
| GCCTATGCTTGGGTTCTAACCTGTTGCCT (site GACTATGCTAG) | 0.115 |
| GCCTATGCTTGGGTTCTAACCTGTTGCCT (site GCCTATGCTAG) | 0.852 |
| GCCTATGCTTGGGTTCTAACCTGTTGCCT (site GGCTATGCTAG) | 0.0448 |
| GCCTATGCTTGGGTTCTAACCTGTTGCCT (site GTCTATGCTAG) | 0.0718 |
| GCCTCTTCTTGGGTTCTAACCTGTTGCCT (site GCCTCTTCTAG) | 0.426 |
| GCCTCTTCTTGGGTTCTAACCTGTTGCCT (site GTCTCTACTAG) | 0.0556 |
| GCCTGGTCTTGGGTTCTAACCTGTTGCCT (site GCCTGGTCTAG) | 1.01 |
| GCCTGGTCTTGGGTTCTAACCTGTTGCCT (site TCCTCGTCTAG) | 0.122 |
| GCGACGCCTTGGGTTCTAACCTGTTGCCT (site ACGAAGCCTAG) | 0.0187 |
| GCGACGCCTTGGGTTCTAACCTGTTGCCT (site GCGACGCCTAG) | 1.26 |
| GCGACTCCTTGGGTTCTAACCTGTTGCCT (site GCGACTCCTAA) | 0.215 |
| GCGACTCCTTGGGTTCTAACCTGTTGCCT (site GCGACTCCTAG) | 0.699 |
| GCGATCCCTTGGGTTCTAACCTGTTGCTT (site CATGAGACTCC) | 0.0103 |
| GCGATCCCTTGGGTTCTAACCTGTTGCTT (site GCGATCCCTAA) | 0.798 |
| GCGCACCCTTGGGTTCTAACCTGTTGCAG (site CTGCACCCTCT) | 0.0518 |
| GCGCACCCTTGGGTTCTAACCTGTTGCAG (site GCGCACCCTCT) | 1.15 |
| GCGCATGCTTGGGTTCTAACCTGTTGCCT (site GCGCATGCTAG) | 0.788 |
| GCGCATGCTTGGGTTCTAACCTGTTGCCT (site GTGCCTGCTAG) | 0.41 |
| GCGCCCTCTTGGGTTCTAACCTGTTGCCT (site ACGCCCTCTAG) | 0.0862 |
| GCGCCCTCTTGGGTTCTAACCTGTTGCCT (site GCGCCCTCTAG) | 0.7 |

| Sequence | recombinant barcode read abundance (log10) |
| --- | --- |
| GCGCGAACTTGGGTTCTAACCTGTTGCCT (site GCACGAACTAG) | 0.733 |
| GCGCGAACTTGGGTTCTAACCTGTTGCCT (site GCCCGAACTAG) | 0.047 |
| GCGCGAACTTGGGTTCTAACCTGTTGCCT (site GCGCGAACTAG) | 0.608 |
| GCGCGAACTTGGGTTCTAACCTGTTGCCT (site GCTCGAACTAG) | 0.125 |
| GCGGAATCTTGGGTTCTAACCTGTTGCCT (site GCGGAATCTAG) | 1.28 |
| GCGGAATCTTGGGTTCTAACCTGTTGCCT (site TCGGAATCTAG) | 0.469 |
| GCGGACGCTTGGGTTCTAACCTGTTGCCT (site CCGGACCCTAG) | 0.0428 |
| GCGGACGCTTGGGTTCTAACCTGTTGCCT (site GCGGACGCTAG) | 1.72 |
| GCGGGTCCTTGGGTTCTAACCTGTTGCGT (site GCGGGTCCTAC) | 2.98 |
| GCGGGTCCTTGGGTTCTAACCTGTTGCGT (site GCTGCTCCTAC) | 0.0517 |
| GCGGTTCCTTGGGTTCTAACCTGTTGCCT (site GCCGCTCCTAG) | 0.139 |
| GCGGTTCCTTGGGTTCTAACCTGTTGCCT (site GCGGTTCCTAG) | 1.96 |
| GCGTATCCTTGGGTTCTAACCTGTTGCCT (site GCGAATCCTAG) | 0.127 |
| GCGTATCCTTGGGTTCTAACCTGTTGCCT (site GCGCATCCTAG) | 0.0623 |
| GCGTATCCTTGGGTTCTAACCTGTTGCCT (site GCGGATCCTAG) | 0.23 |
| GCGTATCCTTGGGTTCTAACCTGTTGCCT (site GCGTATCCTAG) | 0.93 |
| GCGTCGTCTTGGGTTCTAACCTGTTGCCT (site GCATCGTCTAG) | 0.134 |
| GCGTCGTCTTGGGTTCTAACCTGTTGCCT (site GCCTCGTCTAG) | 0.193 |
| GCGTCGTCTTGGGTTCTAACCTGTTGCCT (site GCGTCGTCTAG) | 0.0822 |
| GCGTCGTCTTGGGTTCTAACCTGTTGCCT (site GCTTCGTCTAG) | 0.229 |
| GCGTCTCCTTGGGTTCTAACCTGTTGCAT (site GCGACTCCTAT) | 0.209 |
| GCGTCTCCTTGGGTTCTAACCTGTTGCAT (site GCGCCTCCTAT) | 0.012 |
| GCGTCTCCTTGGGTTCTAACCTGTTGCAT (site GCGGCTCCTAT) | 0.0731 |
| GCGTCTCCTTGGGTTCTAACCTGTTGCAT (site GCGTCTCCTAT) | 0.335 |
| GCGTTTGCTTGGGTTCTAACCTGTTGCCT (site GAGTTTGCTAG) | 0.106 |
| GCGTTTGCTTGGGTTCTAACCTGTTGCCT (site GCGTTTGCTAG) | 1.01 |

| Sequence | recombinant barcode read abundance (log10) |
| --- | --- |
| GCGTTTGCTTGGGTTCTAACCTGTTGCCT (site GGGTTTGCTAG) | 0.0501 |
| GCGTTTGCTTGGGTTCTAACCTGTTGCCT (site GTGTTTGCTAG) | 0 |
| GCTAACACTTGGGTTCTAACCTGTTGCCT (site ACTAACACTAG) | 0.2 |
| GCTAACACTTGGGTTCTAACCTGTTGCCT (site CCTAACACTAG) | 0.153 |
| GCTAACACTTGGGTTCTAACCTGTTGCCT (site GCTAACACTAG) | 1.37 |
| GCTAACACTTGGGTTCTAACCTGTTGCCT (site TCTAACACTAG) | 0.075 |
| GCTAACCCTTGGGTTCTAACCTGTTGCGT (site GCGAACCCTCC) | 0 |
| GCTAACCCTTGGGTTCTAACCTGTTGCGT (site GCTAACCCTAC) | 3.05 |
| GCTAGGACTTGGGTTCTAACCTGTTGCTG (site CGGTCTGCTAT) | 0.163 |
| GCTAGGACTTGGGTTCTAACCTGTTGCTG (site GCTAGGACTCA) | 2.12 |
| GCTCAACCTTGGGTTCTAACCTGTTGCCT (site GATCAACCTAG) | 0.796 |
| GCTCAACCTTGGGTTCTAACCTGTTGCCT (site GCTCAACCTAG) | 1.6 |
| GCTCAACCTTGGGTTCTAACCTGTTGCCT (site GGTCAACCTAG) | 0.176 |
| GCTCAACCTTGGGTTCTAACCTGTTGCCT (site GTTCAACCTAG) | 0.126 |
| GCTCACTCTTGGGTTCTAACCTGTTGCTT (site GCTCACTCTAA) | 1.63 |
| GCTCACTCTTGGGTTCTAACCTGTTGCTT (site GTTCCCTCTAA) | 0.0084 |
| GCTCAGCCTTGGGTTCTAACCTGTTGCCT (site GCTCAGACTAG) | 0.0954 |
| GCTCAGCCTTGGGTTCTAACCTGTTGCCT (site GCTCAGCCTAG) | 1.14 |
| GCTCAGCCTTGGGTTCTAACCTGTTGCCT (site GCTCAGGCTAG) | 0.16 |
| GCTCAGCCTTGGGTTCTAACCTGTTGCCT (site GCTCAGTCTAG) | 0.072 |
| GCTCCGTCTTGGGTTCTAACCTGTTGCTT (site ACTCCGTCTTA) | 0.047 |
| GCTCCGTCTTGGGTTCTAACCTGTTGCTT (site GCTCCGTCTAA) | 0.644 |
| GCTCGACCTTGGGTTCTAACCTGTTGCTG (site CGCTCCTCTAT) | 0.18 |
| GCTCGACCTTGGGTTCTAACCTGTTGCTG (site GCTCGACCTCA) | 1.68 |
| GCTCGTACTTGGGTTCTAACCTGTTGCAT (site GCTCGTACTAT) | 1.47 |
